{"source": "patent US6858597B2", "about": "“Halogenated sulphamate-, phosphonate-, thiophosphonate-, sulphonate- and sulphonamide- compounds as inhibitors of steroid sulphatase” (Sterix Limited, priority 1999, dated 2005)", "key": {"steroid sulphatase": {"target": "T1, steroid sulphatase (Homo sapiens, UniProt P08842)", "T1 sequence (P08842 22-583)": "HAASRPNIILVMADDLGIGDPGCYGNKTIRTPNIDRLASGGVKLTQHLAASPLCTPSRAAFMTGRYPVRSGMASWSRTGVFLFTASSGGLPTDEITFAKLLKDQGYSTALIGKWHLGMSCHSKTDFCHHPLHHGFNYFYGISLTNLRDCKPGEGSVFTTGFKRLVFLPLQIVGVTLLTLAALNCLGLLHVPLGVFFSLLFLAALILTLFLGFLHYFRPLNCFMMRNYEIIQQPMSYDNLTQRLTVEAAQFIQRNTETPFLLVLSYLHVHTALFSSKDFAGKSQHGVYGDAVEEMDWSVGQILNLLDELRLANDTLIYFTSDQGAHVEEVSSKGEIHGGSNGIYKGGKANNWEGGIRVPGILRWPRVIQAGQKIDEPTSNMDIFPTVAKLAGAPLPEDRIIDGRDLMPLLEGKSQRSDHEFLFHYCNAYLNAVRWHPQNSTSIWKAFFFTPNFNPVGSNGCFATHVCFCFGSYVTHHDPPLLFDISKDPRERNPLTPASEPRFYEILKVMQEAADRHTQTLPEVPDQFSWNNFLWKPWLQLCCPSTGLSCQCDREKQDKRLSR", "conditions": "compared with EMATE, cited from earlier work; for E1-STS inactivation: 3-O-atom replaced by other heteroatoms"}, "steroid sulphatase (STS)": {"target": "T2, steroid sulphatase (STS) (Homo sapiens, UniProt P08842)", "T2 construct": "Placental microsomes were obtained by centrifugation of the resulting supernatant at 100,000×g for 1 h; from tissue; host or cells: human placenta (microsomes)", "T2 sequence (P08842 22-583)": "T1 sequence (P08842 22-583)", "test": "STS inhibition, IC50 (protocol not given)", "assay_type": "biochemical", "conditions": "assay not given", "procedure": "Sulphatase-positive human placenta from normal term pregnancies are thoroughly minced with scissors and washed once with cold phosphate buffer (pH 7.4, 50 mM) then re-suspended in cold phosphate buffer (5 ml/g tissue). Homogenisation is accomplished with an Ultra-Turrax homogeniser, using three 10 second bursts separated by 2 minute cooling periods in ice. Nuclei and cell debris are removed by centrifuging (4° C.) at 2000 g for 30 minutes and portions (2 ml) of the supernatant are stored at […] The protein concentration of the supernatants is determined by the method of Bradford (Anal. Biochem., 72, 248-254 (1976)).\nIncubations (1 ml) are carried out using a protein concentration of […], substrate concentration of […] [6,7-3H]oestrone-3-sulphate (specific activity 60 Ci/mmol from New England Nuclear, Boston, Mass., U.S.A.) and an incubation time of 20 minutes at 37° C. If necessary eight concentrations of compounds are employed: 0 (i.e. control); 0.05 mM; 0.1 mM; 0.2 mM; 0.4 mM; 0.6 mM; 0.8 mM; 1.0 mM. After incubation each sample is cooled and the medium (1 ml) was pipetted into separate tubes containing [14C]oestrone (7×10^3 dpm) (specific activity 97 Ci/mmol from Amersham International Radiochemical Centre, Amersham, U.K.). The mixture is shaken thoroughly for 30 seconds with toluene (5 ml). Experiments have shown that >90% [14C]oestrone and <0.1% [3H]oestrone-3-sulphate is removed from the aqueous phase by this treatment. A portion (2 ml) of the organic phase was removed, evaporated and the 3H and 14C content of the residue determined by scintillation spectrometry. The mass of oestrone-3-sulphate hydrolysed is calculated from the 3H counts obtained (corrected for the volumes of the medium and organic phase used, and for recovery of [14C]oestrone added) and the specific activity of the substrate.\nA sulphatase—positive human placenta was used as a source of placental microsomes. Tissue was homogenised and nuclei and cell debris removed by centrifugation at 2000×g for 30 min. Placental microsomes were obtained by centrifugation of the resulting supernatant at 100,000×g for 1 h.\nFor inhibition studies placental microsomes (125 μg/ml) were incubated in the absence or presence of inhibitors (1 pm-1.0 μM) with ^3H estrone sulphate (E1S, 2×10^5 dpm adjusted to 20 μM with unlabelled E1S for 60 mins. [4-^14C E1] (7×10^3 dpm) was added to correct for procedural losses and free and sulphated steroids separated by solvent partition using toluene. A portion of the solvent was removed and the ^3H and ^14C content determined by liquid scintillation spectrometry."}, "T47D cells": {"tested_on": "T47D cells", "test": "Effect of Halo-EMATEs on T47D cell growth (plate assay)", "assay_type": "cell-based", "set-up": "key to Morphology: +: has effect on cell morphology", "conditions": "for inhibition at 1 µM / inhibition at 10 µM: Homo sapiens, 24 h", "procedure": "Effect of Halo-EMATES on T47D Cell Growth (Plate Assay)\nT47D receptor positive breast cancer cells were seeded into a 96 well cell culture plate and allowed to grow until approximately 70% confluent. Cells were treated with either vehicle (controls, tetrahydrofuran in medium) or halo-EMATEs (1 or 10 μM) and cultured for a further 24 h. At the end of this period effects of the drugs on cell numbers were determined using a microtitre plate assay (Cell Titre 96 cell proliferation assay, Promega). In this assay the conversion of substrate by untreated cells at the end of the culture period was set at 100%."}, "MCF-7 cells": {"tested_on": "MCF-7 cells", "test": "Plate Assay in MCF-7 cells", "assay_type": "cell-based", "conditions": "Homo sapiens, MCF7"}, "[1]": {"conditions": "cited from earlier work"}, "rats": {"tested_on": "rats", "conditions": "cited from earlier work"}, "E1-STS": {"target": "T3, E1-STS (Homo sapiens, UniProt P08842)", "T3 construct": "endogenous in cells; host or cells: MCF-7", "T3 sequence (P08842 22-583)": "T1 sequence (P08842 22-583)", "conditions": "intact MCF-7 cells, 0.1 mM; cited from earlier work"}}}
{"compound": "oestrone-3-N-sulphamate", "values": [{"measurement": "E1-STS inactivation", "setting": "steroid sulphatase", "value": "weaker non-time-dependent inactivators"}]}
{"compound": "oestrone-3-S-sulphamate", "values": [{"measurement": "E1-STS inactivation", "setting": "steroid sulphatase", "value": "weaker non-time-dependent inactivators"}]}
{"compound": "C[C@]12CC[C@@H]3c4cc(Br)c(OS(N)(=O)=O)cc4CC[C@H]3[C@@H]1CCC2=O", "note": "[Compound 4, 2-Bromooestrone 3-O-sulphamate]", "values": [{"measurement": "IC50", "setting": "steroid sulphatase (STS)", "value": 1.65, "unit": "nM"}, {"measurement": "Morphology", "setting": "T47D cells", "value": "+"}, {"measurement": "inhibition at 10 µM", "setting": "MCF-7 cells", "value": 33, "unit": "%"}]}
{"compound": "C[C@]12CC[C@@H]3c4ccc(OS(=O)(=O)O)cc4CC[C@H]3[C@@H]1CCC2=O", "note": "[Compound E1S, oestrone sulphate]", "values": [{"measurement": "half-life in blood", "setting": "[1]", "value": "10 to 12", "unit": "h"}]}
{"compound": "CC12CCC3c4ccc(OS(N)(=O)=O)cc4CCC3C1CCC2=O", "note": "(stereo not shown) [EMATE, oestrone-3-O-sulphamate]", "values": [{"measurement": "oral uterotrophic activity relative to estradiol", "setting": "rats; rats, oral", "value": 100, "unit": "times"}, {"measurement": "inhibition of E1-STS activity", "setting": "E1-STS", "value": "more than 99%"}]}
{"compound": "COc1cc2c(cc1OS(N)(=O)=O)CC[C@@H]1[C@@H]2CC[C@]2(C)C(=O)CC[C@@H]12", "note": "[2-methoxyoestrone-3-O-sulphamate]", "values": [{"measurement": "oestrogenicity", "setting": "rats; rat, in vivo", "value": "devoid of oestrogenicity"}, {"measurement": "potency as steroid sulphatase inhibitor", "setting": "steroid sulphatase", "value": "equipotent with EMATE"}]}
{"compound": "C[C@]12CC[C@@H]3c4cc(Cl)c(OS(N)(=O)=O)cc4CC[C@H]3[C@@H]1CCC2=O", "note": "[Compound 10, 2-Chloroestrone 3-O-sulphamate]", "values": [{"measurement": "IC50", "setting": "steroid sulphatase (STS)", "value": 0.8, "unit": "nM"}, {"measurement": "Morphology", "setting": "T47D cells", "value": "+"}, {"measurement": "inhibition at 1 µM", "setting": "T47D cells", "value": 1, "unit": "%"}, {"measurement": "inhibition at 10 µM", "setting": "T47D cells", "value": 7.5, "unit": "%"}, {"measurement": "inhibition at 10 µM", "setting": "MCF-7 cells", "value": 35, "unit": "%"}]}
{"compound": "C[C@]12CC[C@@H]3c4cc(I)c(OS(N)(=O)=O)cc4CC[C@H]3[C@@H]1CCC2=O", "note": "[Compound 7, 2-Iodooestrone 3-O-sulphamate]", "values": [{"measurement": "IC50", "setting": "steroid sulphatase (STS)", "value": 6.1, "unit": "nM"}, {"measurement": "Morphology", "setting": "T47D cells", "value": "+"}, {"measurement": "inhibition at 10 µM", "setting": "MCF-7 cells", "value": 25, "unit": "%"}]}
{"compound": "C[C@]12CCC3c4cc(F)c(OS(N)(=O)=O)cc4CCC3C1CCC2=O", "note": "(stereo partly shown) [Compound 13, 2-Fluorooestrone-3-O-sulphamate]", "values": [{"measurement": "IC50", "setting": "steroid sulphatase (STS)", "value": 5.6, "unit": "nM"}, {"measurement": "Morphology", "setting": "T47D cells", "value": "+"}, {"measurement": "inhibition at 1 µM", "setting": "T47D cells", "value": "< 1", "unit": "%"}, {"measurement": "inhibition at 10 µM", "setting": "T47D cells", "value": 30, "unit": "%"}]}
